According to ChEMBL document CHEMBL5236553, “Advances in the development of HIV integrase strand transfer inhibitors” (Eur J Med Chem, 2021):
pEC50, pIC50: −log10 of the molar value.

Assays:
[1] = test system: Human immunodeficiency virus; assay: Antiviral activity against HIV-1 harboring integrase E92Q mutant; format: functional
[2] = test system: Integrase (Human immunodeficiency virus 1); assay: Inhibition of HIV-1 integrase-catalyzed strand transfer
[3] = target: Human immunodeficiency virus type 1 integrase (Human immunodeficiency virus 1, UniProt Q7ZJM1); assay: Inhibition of HIV-1 integrase strand transfer activity
[4] = test system: Human immunodeficiency virus; assay: Antiviral activity against wild type HIV-1 integrase; format: functional, organism-based; settings: Human immunodeficiency virus 1
[5] = test system: Human immunodeficiency virus; assay: Antiviral activity against HIV-1 harboring integrase Q148R mutant; format: functional, organism-based; settings: Human immunodeficiency virus 1
[6] = test system: Human immunodeficiency virus; assay: Antiviral activity against HIV-1 harboring integrase G140S/Q148H double mutant; format: functional, organism-based; settings: Human immunodeficiency virus 1
[7] = test system: Human immunodeficiency virus; assay: Antiviral activity against HIV-1 harboring integrase N155H mutant; format: functional, organism-based; settings: Human immunodeficiency virus 1
[8] = test system: Human immunodeficiency virus; assay: Antiviral activity against HIV-1 harboring integrase L74M mutant; format: functional, organism-based; settings: Human immunodeficiency virus 1
[9] = test system: Human immunodeficiency virus; assay: Antiviral activity against HIV-1 harboring integrase M50I mutant; format: functional, organism-based; settings: Human immunodeficiency virus 1
[10] = test system: Human immunodeficiency virus; assay: Antiviral activity against HIV-1 harboring integrase G140S/Q148H mutant; format: functional, organism-based; settings: Human immunodeficiency virus 1
[11] = test system: Human immunodeficiency virus; assay: Antiviral activity against HIV-1 harboring integrase […]/N155H mutant; format: functional, organism-based; settings: Human immunodeficiency virus 1
[12] = test system: Human immunodeficiency virus; assay: Antiviral activity against HIV-1 harboring integrase E138K/Q148K mutant; format: functional, organism-based; settings: Human immunodeficiency virus 1
[13] = test system: Human immunodeficiency virus; assay: Antiviral activity against HIV-1 assessed as inhibition of HIV infection in human T cells by cell based assay; format: functional, organism-based; settings: Human immunodeficiency virus 1, T-cell
[14] = test system: Human immunodeficiency virus; assay: Fold change in antiviral EC50 against HIV-1 harboring integrase Y143R mutant; settings: Human immunodeficiency virus 1
[15] = test system: Human immunodeficiency virus; assay: Fold change in antiviral EC50 against HIV-1 harboring integrase Q148K mutant; settings: Human immunodeficiency virus 1
[16] = test system: Human immunodeficiency virus; assay: Binding affinity to HIV-1 wildtype integrase DNA complex assessed as dissociative half life
Integrase [17] = target: T1, Integrase (Human immunodeficiency virus 1, UniProt T1QYY3, G140S/Q148H); assay: Inhibition of HIV-1 integrase RAL-resistant G140S/Q148H double mutant
[18] = target: Human immunodeficiency virus type 1 integrase (Human immunodeficiency virus 1, UniProt Q7ZJM1, G118R); assay: Inhibition of HIV-1 integrase DTG-resistant G118R mutant
[19] = target: Human immunodeficiency virus type 1 integrase (Human immunodeficiency virus 1, UniProt Q7ZJM1, R263K); assay: Inhibition of HIV-1 integrase DTG-resistant R263K mutant
[20] = target: Human immunodeficiency virus type 1 integrase (Human immunodeficiency virus 1, UniProt Q7ZJM1, H51Y/R263K); assay: Inhibition of HIV-1 integrase DTG-resistant H51Y/R263K double mutant
Integrase [21] = target: T1, Integrase; assay: Inhibition of HIV-1 integrase G140S/Q148H double mutant
[22] = Clearance in rat plasma; format: ADME, cell-free
[23] = Clearance in dog plasma; format: ADME, cell-free, Canis lupus familiaris

## Cc1nnc(C(=O)NC(C)(C)c2nc(C(=O)NCc3ccc(F)cc3)c(O)c(=O)n2C)o1
[1]
  fold change (FC): 3
[2]
  pIC50: 8.00

## O=C(NCc1ccc(F)cc1F)c1c(O)c2cccnc2n(O)c1=O
[3]
  pIC50: 6.26

## O=C(NCc1ccc(F)cc1F)c1cc2cccnc2n(O)c1=O
[3]
  pIC50: 6.39

## CC1(C)OCCn2c1nc(-c1ncc(Cc3ccc(F)cc3)[nH]1)c(O)c2=O
[4]
  pEC50: 8.22
[5]
  pEC50: 7.48
[6]
  pEC50: 6.49
[7]
  pEC50: 8.70

## O=C(NCc1ccc(F)cc1F)c1cc2cccc(O)c2n(O)c1=O
[3]
  pIC50: 5.74

## O=C(NCc1ccc(F)c(Cl)c1)c1cc2cccnc2n(O)c1=O
[3]
  pIC50: 6.85

## Nc1c(C(=O)NCc2ccc(F)cc2F)c(=O)n(O)c2ncc(CCCCCCO)cc12
[8]
  pEC50: 8.80
[9]
  pEC50: 8.89
[10]
  pEC50: 9.05
[11]
  pEC50: 8.96
[12]
  pEC50: 7.80

## CC1(C)OCCn2c1nc(C(=O)NCc1ccc(F)cc1)c(O)c2=O
[4]
  pEC50: 8.52
[5]
  pEC50: 6.52
[6]
  pEC50: < 5.10
[7]
  pEC50: 6.85

## COc1cc2c(cc1Cc1cccc(Cl)c1F)c(=O)c(C(=O)O)cn2[C@H](CO)C(C)C
[13]
  pEC50: 9.05

## O=C(NCc1ccc(F)c(F)c1)c1c(O)c2cccnc2n(O)c1=O
[3]
  pIC50: 6.40

## C[C@H](O)N1C(=O)c2c3c(c(O)c(=O)n2[C@]12CC[C@H]1C[C@H]12)C(=O)N(Cc1ccc(F)c(Cl)c1)CC3
[5]
  pEC50: 8.82
[7]
  pEC50: 8.82
[1]
  fold change (FC): 1.5
[14]
  fold change: 1
[15]
  fold change: 1

## CN1C(=O)c2c3c(c(O)c(=O)n2[C@]12CC[C@H]1C[C@@]12CO)C(=O)N(Cc1ccc(F)c(Cl)c1)CC3
[1]
  fold change (FC): 1
[14]
  fold change: 1
[15]
  fold change: 1

## O=C(NCc1ccc(F)c(Cl)c1)c1c(O)c2cccnc2n(O)c1=O
[3]
  pIC50: 6.57

## C[C@@H]1CCO[C@H]2Cn3cc(C(=O)NCc4ccc(F)cc4F)c(=O)c(O)c3C(=O)N12 [DOLUTEGRAVIR]
[16]
  T1/2: 71 h
[8]
  pEC50: 8.66
[9]
  pEC50: 8.68
[10]
  pEC50: 8.41
[11]
  pEC50: 8.40
[12]
  pEC50: 7.60

## O=C(NCc1c(F)cc(F)cc1F)c1cn2c(c(O)c1=O)C(=O)N1[C@H]3CC[C@H](C3)O[C@@H]1C2 [BICTEGRAVIR]
Integrase [17]
  pEC50: ≥ 8.30
[18]
  pEC50: ≥ 8.30
[19]
  pEC50: ≥ 8.30
[20]
  pEC50: ≥ 8.30
Integrase [21]
  pEC50: 8.51

## CC(C)n1c(C(=O)N(C)C)c2c(c(O)c1=O)C(=O)N(Cc1ccc(F)c(Cl)c1)CC2
[1]
  fold change (FC): 1
[22]
  clearance: 2.3 mL/min/kg
[23]
  clearance: 2.2 mL/min/kg
[14]
  fold change: 2
[15]
  fold change: 1

## O=C(NCc1ccc(F)c(F)c1)c1cc2cccnc2n(O)c1=O
[3]
  pIC50: 6.77
